Experiments:
[1] = Dissolution of powder and dispersion in 900 ml of 100 mM pH 6.8 phosphate buffer at 100 rpm; type: physicochemical; details: 60 mg equivalent
Method: • i. 2 gm of hesperetin was dissolved in 150 ml of methanol • ii. 2 gm of mannitol was dissolved in 50 ml of distilled water. • iii. Aqueous mannitol solution was added to methanolic solution of hesperetin. The solution was spray dried using following parameters (Table 10). • iv. DSC and MDSC indicated the crystalline nature of hesperetin in the dispersion. The crystallite size measured from powder X-ray diffraction peak broadening (FIG. 14) by Scherrer equation was 141.06 nm. • v. The dissolution profiles of hesperetin powder and dispersion in 900 ml of 100 mM pH 6.8 phosphate buffer at 100 rpm are presented in Table 11. 60 mg equivalent of hesperetin as powder and dispersion were taken for dissolution studies. • i. 2 gm of Naringenin was dissolved in 150 ml of methanol • ii. 2 gm of mannitol was dissolved in 50 ml of distilled water. • iii. Aqueous mannitol solution was added to methanolic solution of naringenin. The solution was spray dried using following parameters (Table 12). • iv. DSC and MDSC indicated the crystalline nature of naringenin in the dispersion. The crystallite size measured from powder X-ray diffraction peak broadening (FIG. 15) by Scherrer equation was 210.63 nm. • v. The dissolution profiles of naringenin powder and dispersion in 900 ml of 100 mM pH 6.8 phosphate buffer at 100 rpm are presented in Table 13. 60 mg equivalent of naringenin as powder and dispersion were taken for dissolution studies.

in vivo = details: female, SD, rat, po, 250 mg/kg
[2] = Dissolution of curcumin powder and dispersion in fasted state simulated gastric fluid; type: physicochemical; details: fasted state simulated gastric fluid pH 1.6, 37° C., 100 rpm, 25 mg equivalent
Method: • i. 2 gm of curcumin and 2 gm of stearic acid were dissolved in 200 ml of acetone. • ii. The solution was spray dried using following parameters (Table 1). • iii. DSC and MDSC indicated the crystalline nature of curcumin in the dispersion. The crystallite size measured from powder X-ray diffraction peak broadening by Scherrer equation was 398.6 nm. • iv. Fasted state simulated gastric fluid contained sodium taurocholate (80 μM), lecithin (20 μM), pepsin (0.1 mg/ml), sodium chloride (34.2 mM), sodium lauryl sulphate (0.05% w/v) and hydrochloric acid (q.s. pH 1.6). Samples equivalent to 25 mg of CRM were added into 900 ml dissolution medium and incubated at 37±0.5° C. at 100 rpm.

Compound | % Release ([1]; 0 min) [%] | % Release ([1]; 3 min) [%] | % Release ([1]; 5 min) [%] | % Release ([1]; 10 min) [%] | % Release ([1]; 15 min) [%] | % Release ([1]; 30 min) [%] | % Release ([1]; 60 min) [%] | % Release ([1]; 120 min) [%] | also measured
O=C1C[C@@H](c2ccc(O)cc2)Oc2cc(O)cc(O)c21 [Naringenin powder, naringenin] | 1.60 | 5.84 | 9.54 | 11.52 | 17.32 | 23.34 | 26.25 | 25.14 | –
COc1cc(/C=C/C(=O)CC(=O)/C=C/c2ccc(O)c(OC)c2)ccc1O [Control, curcumin] | – | – | – | – | – | – | – | – | AUC(0-inf) (in vivo): 0.0762 µg·h/mL; Cmax (in vivo): 0.0581 µg/mL; Tmax (in vivo): 0.6 ± 0.1 h; half-life (in vivo): 1.4 ± 0.3 h
COc1cc(/C=C/C(=O)CC(=O)/C=C/c2ccc(O)c(OC)c2)ccc1O [Curcumin powder, curcumin] | – | – | – | – | – | – | – | – | % Release ([2]; 5 min): 10.8%; % Release ([2]; 10 min): 15.0%; % Release ([2]; 15 min): 15.4%; % Release ([2]; 20 min): 15.1%; % Release ([2]; 30 min): 15.1%; % Release ([2]; 40 min): 15.2%; % Release ([2]; 60 min): 15.0%; % Release ([2]; 80 min): 15.2%; % Release ([2]; 100 min): 15.6%; % Release ([2]; 120 min): 15.3%
COc1ccc([C@@H]2CC(=O)c3c(O)cc(O)cc3O2)cc1O [Hesperetin powder, hesperetin] | 0.00 | 1.25 | 3.06 | 2.15 | 1.06 | 1.48 | 3.74 | 7.47 | –
